Measured values from US7507727B2, “Substituted quinobenzoxazine analogs and methods of using thereof” (Cylene Pharmaceuticals, Inc., priority 2003, dated 2009).

Target: c-Myc template DNA (c-myc quadruplex)
Assay: Quadruplex binding / stop assay (Taq polymerase arrest, capillary electrophoresis)
Conditions: read-out: Stop Data c-Myc μM; concentration at which 50% of the DNA was arrested (arrested:full-length 1:1)

Structure (SMILES): CC(C)(C)OC(=O)NC1CCN(c2c(F)cc3c(=O)c(C(=O)NCCc4cnc[nH]4)cn4c3c2Oc2cc3ccccc3cc2-4)C1 (stereo not shown) [compound 181]
- IC50: 1.75 µM

Structure (SMILES): CC1(C)CC(NC(=O)c2cn3c4c(c(N5CCC(NC(=O)OC(C)(C)C)C5)c(F)cc4c2=O)Oc2cc4ccccc4cc2-3)CC(C)(C)N1 (stereo not shown) [compound 182]
- IC50: 1.75 µM

Structure (SMILES): CC(C)(C)OC(=O)NC1CCN(c2c(F)cc3c(=O)c(C(=O)NCCc4ccc(N)cc4)cn4c3c2Oc2cc3ccccc3cc2-4)C1 (stereo not shown) [compound 183]
- IC50: 1.75 µM

Structure (SMILES): CC(C)(C)OC(=O)NC1CCN(c2c(F)cc3c(=O)c(C(=O)NCc4nc5ccccc5[nH]4)cn4c3c2Oc2cc3ccccc3cc2-4)C1 (stereo not shown) [compound 184]
- IC50: 1.75 µM

Structure (SMILES): CC1CCCCN1CCCNC(=O)c1cn2c3c(c(N4CCC(NC(=O)OC(C)(C)C)C4)c(F)cc3c1=O)Oc1cc3ccccc3cc1-2 (stereo not shown) [compound 185]
- IC50: 1.75 µM

Structure (SMILES): CC(C)CC(C)(C)CNC(=O)c1cn2c3c(c(N4CCC(NC(=O)OC(C)(C)C)C4)c(F)cc3c1=O)Oc1cc3ccccc3cc1-2 (stereo not shown) [compound 186]
- IC50: 1.75 µM

Structure (SMILES): Cc1ncn(C(=O)c2cn3c4c(c(N5CCC(NC(=O)OC(C)(C)C)C5)c(F)cc4c2=O)Oc2cc4ccccc4cc2-3)c1CO (stereo not shown) [compound 187]
- IC50: 1.75 µM

Structure (SMILES): CC(C)(C)OC(=O)NC1CCN(c2c(F)cc3c(=O)c(C(=O)NCC[N+](C)(C)C)cn4c3c2Oc2cc3ccccc3cc2-4)C1 (stereo not shown) [compound 188]
- IC50: 1.75 µM

Structure (SMILES): CN1CCCC1CCNC(=O)c1cn2c3c(c(N)c(F)c(N4CC[C@H](N)C4)c3c1=O)Oc1cc3ccccc3cc1-2 (stereo partly shown) [compound 189]
- IC50: 1.75 µM

Structure (SMILES): CN(C)CCCCNC(=O)c1cn2c3c(c(N)c(F)c(N4CC[C@H](N)C4)c3c1=O)Oc1cc3ccccc3cc1-2 [compound 190]
- IC50: 1.75 µM

Structure (SMILES): CN1CCCC1CCNC(=O)c1cn2c3c(c(N)c(F)c(NCCCN4CCOCC4)c3c1=O)Oc1cc3ccccc3cc1-2 (stereo not shown) [compound 191]
- IC50: 1.75 µM

Structure (SMILES): CN(C)CCCCNC(=O)c1cn2c3c(c(N)c(F)c(NCCCN4CCOCC4)c3c1=O)Oc1cc3ccccc3cc1-2 [compound 192]
- IC50: 1.75 µM

Structure (SMILES): Nc1ccc(CCNC(=O)c2cn3c4c(c(N5CCC(N)C5)c(F)cc4c2=O)Oc2cc4ccccc4cc2-3)cc1 (stereo not shown) [compound 193]
- IC50: 1.75 µM

Structure (SMILES): CN(C)CCN(Cc1ccccc1)C(=O)c1cn2c3c(c(N4CCC(N)C4)c(F)cc3c1=O)Oc1cc3ccccc3cc1-2 (stereo not shown) [compound 194]
- IC50: 1.75 µM

Structure (SMILES): NC1CCN(c2c(F)cc3c(=O)c(C(=O)NCCN4CCCCC4)cn4c3c2Oc2cc3ccccc3cc2-4)C1 (stereo not shown) [compound 195]
- IC50: 1.75 µM

Structure (SMILES): NC1CCN(c2c(F)cc3c(=O)c(C(=O)NCc4nc5ccccc5[nH]4)cn4c3c2Oc2cc3ccccc3cc2-4)C1 (stereo not shown) [compound 196]
- IC50: 1.75 µM

Structure (SMILES): CN1CCCN(C(=O)c2cn3c4c(c(N5CCC(N)C5)c(F)cc4c2=O)Oc2cc4ccccc4cc2-3)CC1 (stereo not shown) [compound 197]
- IC50: 1.75 µM

Structure (SMILES): CN1CCC(N(C)C(=O)c2cn3c4c(c(N5CCC(N)C5)c(F)cc4c2=O)Oc2cc4ccccc4cc2-3)CC1 (stereo not shown) [compound 198]
- IC50: 1.75 µM

Structure (SMILES): Cc1ncn(C(=O)c2cn3c4c(c(N5CCC(N)C5)c(F)cc4c2=O)Oc2cc4ccccc4cc2-3)c1CO (stereo not shown) [compound 199]
- IC50: 1.75 µM

Structure (SMILES): NC1CCN(c2c(F)cc3c(=O)c(C(=O)NCCCn4ccnc4)cn4c3c2Oc2cc3ccccc3cc2-4)C1 (stereo not shown) [compound 200]
- IC50: 1.75 µM

Structure (SMILES): CC(=O)N1CCN(C(=O)c2cn3c4c(c(N5CCC(N)C5)c(F)cc4c2=O)Oc2cc4ccccc4cc2-3)CC1 (stereo not shown) [compound 201]
- IC50: 1.75 µM

Structure (SMILES): CC(C)(C)OC(=O)N[C@H]1CCN(c2c(F)cc3c(=O)c(C(=O)NCCN4CCCC4)cn4c5cc6c(cc5oc2c34)c(=O)c2ccccc26)C1 [compound 202]
- IC50: 1.75 µM

Structure (SMILES): O=C(NCCCN1CCOCC1)c1cn2c3cc4c(cc3oc3c(NCCCN5CCOCC5)c(F)cc(c1=O)c32)c(=O)c1ccccc14 [compound 203]
- IC50: 1.75 µM

Structure (SMILES): CC(C)(C)OC(=O)N[C@H]1CCN(c2c(F)cc3c(=O)c(C(=O)NCCCN4CCOCC4)cn4c5cc6c(cc5oc2c34)c(=O)c2ccccc26)C1 [compound 204]
- IC50: 1.75 µM

Structure (SMILES): O=C(NCCCN1CCOCC1)c1cn2c3cc4c(cc3oc3c(NCCN5CCOCC5)c(F)cc(c1=O)c32)c(=O)c1ccccc14 [compound 205]
- IC50: 1.75 µM

Structure (SMILES): CN1CCCC1CCNc1c(F)cc2c(=O)c(C(=O)N3CC[C@H](NC(=O)OC(C)(C)C)C3)cn3c4cc5c(cc4oc1c23)c(=O)c1ccccc15 (stereo partly shown) [compound 206]
- IC50: 1.75 µM

Structure (SMILES): CN(C)CCCCNc1c(F)cc2c(=O)c(C(=O)N3CC[C@H](NC(=O)OC(C)(C)C)C3)cn3c4cc5c(cc4oc1c23)c(=O)c1ccccc15 [compound 207]
- IC50: 1.75 µM

Structure (SMILES): CC(C)(C)OC(=O)N[C@H]1CCN(c2c(F)cc3c(=O)c(C(=O)NCCN4CCOCC4)cn4c5cc6c(cc5oc2c34)c(=O)c2ccccc26)C1 [compound 208]
- IC50: 1.75 µM

Structure (SMILES): CN1CCN(CCCNC(=O)c2cn3c4cc5c(cc4oc4c(NCCCN6CCOCC6)c(F)cc(c2=O)c43)c(=O)c2ccccc25)CC1 [compound 209]
- IC50: 1.75 µM

Structure (SMILES): CC(C)(C)OC(=O)N[C@@H]1CCN(c2c(F)cc3c(=O)c(C(=O)NCCCCN)cn4c3c2Oc2cc3ccccc3cc2-4)C1 [compound 210]
- IC50: 1.75 µM

Structure (SMILES): CN(C)/C=N/CCCNC(=O)c1cn2c3c(c(N4CC[C@@H](NC(=O)OC(C)(C)C)C4)c(F)cc3c1=O)Oc1cc3ccccc3cc1-2 [compound 211]
- IC50: 1.75 µM

Structure (SMILES): CN(C)/C=N/CCCCNC(=O)c1cn2c3c(c(N4CC[C@@H](NC(=O)OC(C)(C)C)C4)c(F)cc3c1=O)Oc1cc3ccccc3cc1-2 [compound 212]
- IC50: 1.75 µM

Structure (SMILES): CN1CCCC1CCNC(=O)c1cn2c3c(c(N4CCC(NC(=O)OC(C)(C)C)C4)c(F)cc3c1=O)Oc1cc3ccccc3cc1-2 (stereo not shown) [compound 213]
- IC50: 1.75 µM

Structure (SMILES): N[C@H]1CCN(C(=O)c2cn3c4cc5c(cc4oc4c(NCCN6CCCC6)c(F)cc(c2=O)c43)c(=O)c2ccccc25)C1 [compound 214]
- IC50: 1.75 µM

Structure (SMILES): CN1CCCC1CCNc1c(F)cc2c(=O)c(C(=O)N3CC[C@H](N)C3)cn3c4cc5c(cc4oc1c23)c(=O)c1ccccc15 (stereo partly shown) [compound 215]
- IC50: 1.75 µM

Structure (SMILES): N[C@H]1CCN(C(=O)c2cn3c4cc5c(cc4oc4c(NCCCN6CCOCC6)c(F)cc(c2=O)c43)c(=O)c2ccccc25)C1 [compound 216]
- IC50: 1.75 µM

Structure (SMILES): CN(C)CCCCNc1c(F)cc2c(=O)c(C(=O)N3CC[C@H](N)C3)cn3c4cc5c(cc4oc1c23)c(=O)c1ccccc15 [compound 217]
- IC50: 1.75 µM

Structure (SMILES): Nc1c(F)c(NCCCN2CCOCC2)c2c3c1c(=O)c(C(=O)NCCCN1CCOCC1)cn3-c1cc3ccccc3cc1O2 [compound 218]
- IC50: 1.75 µM

Structure (SMILES): CC(C)(C)OC(=O)NC1CCN(C(=O)c2cn3c4c(c(NCCCN5CCOCC5)c(F)c(N)c4c2=O)Oc2cc4ccccc4cc2-3)C1 (stereo not shown) [compound 219]
- IC50: 1.75 µM

Structure (SMILES): CN(C)CCCCNC(=O)c1cn2c3c(c(NCCCN4CCOCC4)c(F)c(N)c3c1=O)Oc1cc3ccccc3cc1-2 [compound 220]
- IC50: 1.75 µM

Structure (SMILES): Nc1c(F)c(NCCCN2CCOCC2)c2c3c1c(=O)c(C(=O)NCCN1CCOCC1)cn3-c1cc3ccccc3cc1O2 [compound 221]
- IC50: 1.75 µM

Structure (SMILES): Nc1c(F)c(NCCCN2CCOCC2)c2c3c1c(=O)c(C(=O)N1CCOCC1)cn3-c1cc3ccccc3cc1O2 [compound 222]
- IC50: 1.75 µM

Structure (SMILES): CN1CCN(CCCNC(=O)c2cn3c4c(c(NCCCN5CCOCC5)c(F)c(N)c4c2=O)Oc2cc4ccccc4cc2-3)CC1 [compound 223]
- IC50: 1.75 µM

Structure (SMILES): CC(C)(C)OC(=O)NC1CCN(c2c(F)c(N)c3c(=O)c(C(=O)NCCN4CCCC4)cn4c3c2Oc2cc3ccccc3cc2-4)C1 (stereo not shown) [compound 224]
- IC50: 1.75 µM

Structure (SMILES): CN1CCCC1CCNC(=O)c1cn2c3c(c(N4CCC(NC(=O)OC(C)(C)C)C4)c(F)c(N)c3c1=O)Oc1cc3ccccc3cc1-2 (stereo not shown) [compound 225]
- IC50: 1.75 µM

Structure (SMILES): CC(C)(C)OC(=O)NC1CCN(c2c(F)c(N)c3c(=O)c(C(=O)NCCCN4CCOCC4)cn4c3c2Oc2cc3ccccc3cc2-4)C1 (stereo not shown) [compound 226]
- IC50: 1.75 µM

Structure (SMILES): CC(C)(C)OC(=O)NC1CCN(C(=O)c2cn3c4c(c(N5CCC(NC(=O)OC(C)(C)C)C5)c(F)c(N)c4c2=O)Oc2cc4ccccc4cc2-3)C1 (stereo not shown) [compound 227]
- IC50: 1.75 µM

Structure (SMILES): CN(C)CCCCNC(=O)c1cn2c3c(c(N4CCC(NC(=O)OC(C)(C)C)C4)c(F)c(N)c3c1=O)Oc1cc3ccccc3cc1-2 (stereo not shown) [compound 228]
- IC50: 1.75 µM

Structure (SMILES): CC(C)(C)OC(=O)NC1CCN(c2c(F)c(N)c3c(=O)c(C(=O)NCCN4CCOCC4)cn4c3c2Oc2cc3ccccc3cc2-4)C1 (stereo not shown) [compound 229]
- IC50: 1.75 µM

Structure (SMILES): CC(C)(C)OC(=O)NC1CCN(c2c(F)c(N)c3c(=O)c(C(=O)N4CCOCC4)cn4c3c2Oc2cc3ccccc3cc2-4)C1 (stereo not shown) [compound 230]
- IC50: 1.75 µM

Structure (SMILES): CN1CCN(CCCNC(=O)c2cn3c4c(c(N5CCC(NC(=O)OC(C)(C)C)C5)c(F)c(N)c4c2=O)Oc2cc4ccccc4cc2-3)CC1 (stereo not shown) [compound 231]
- IC50: 1.75 µM

Structure (SMILES): Nc1c(F)c(NCCCN2CCOCC2)c2c3c1c(=O)c(C(=O)N1CCC(N)C1)cn3-c1cc3ccccc3cc1O2 (stereo not shown) [compound 232]
- IC50: 1.75 µM

Structure (SMILES): Nc1c(F)c(N2CCC(N)C2)c2c3c1c(=O)c(C(=O)NCCN1CCCC1)cn3-c1cc3ccccc3cc1O2 (stereo not shown) [compound 233]
- IC50: 1.75 µM

Structure (SMILES): CN1CCCC1CCNC(=O)c1cn2c3c(c(N4CCC(N)C4)c(F)c(N)c3c1=O)Oc1cc3ccccc3cc1-2 (stereo not shown) [compound 234]
- IC50: 1.75 µM

Structure (SMILES): Nc1c(F)c(N2CCC(N)C2)c2c3c1c(=O)c(C(=O)NCCCN1CCOCC1)cn3-c1cc3ccccc3cc1O2 (stereo not shown) [compound 235]
- IC50: 1.75 µM

Structure (SMILES): Nc1c(F)c(N2CCC(N)C2)c2c3c1c(=O)c(C(=O)N1CCC(N)C1)cn3-c1cc3ccccc3cc1O2 (stereo not shown) [compound 236]
- IC50: 1.75 µM

Structure (SMILES): CN(C)CCCCNC(=O)c1cn2c3c(c(N4CCC(N)C4)c(F)c(N)c3c1=O)Oc1cc3ccccc3cc1-2 (stereo not shown) [compound 237]
- IC50: 1.75 µM

Structure (SMILES): Nc1c(F)c(N2CCC(N)C2)c2c3c1c(=O)c(C(=O)NCCN1CCOCC1)cn3-c1cc3ccccc3cc1O2 (stereo not shown) [compound 238]
- IC50: 1.75 µM

Structure (SMILES): Nc1c(F)c(N2CCC(N)C2)c2c3c1c(=O)c(C(=O)N1CCOCC1)cn3-c1cc3ccccc3cc1O2 (stereo not shown) [compound 239]
- IC50: 1.75 µM

Structure (SMILES): CN1CCN(CCCNC(=O)c2cn3c4c(c(N5CCC(N)C5)c(F)c(N)c4c2=O)Oc2cc4ccccc4cc2-3)CC1 (stereo not shown) [compound 240]
- IC50: 1.75 µM

Structure (SMILES): CCN(CC)CCCC(C)NC(=O)c1cn2c3c(c(N4CCC(NC(=O)OC(C)(C)C)C4)c(F)cc3c1=O)Oc1cc3ccccc3cc1-2 (stereo not shown) [compound 241]
- IC50: 1.75 µM
